Key:
[1] = system: G3BP1; assay: Immunoblotting of G3BP1 protein level; format: cell-based
Experimental: (§1) Cells and tissues were homogenized in RIPA buffer (Beyotime, China) containing protease inhibitors (Biovision, USA) on ice for 30 min. After centrifugation (13000 r min^−1, 4 °C) for 10 min, the resulting supernatant was collected. The protein concentrations were determined by a BCA protein assay kit (Thermo Scientific, USA). After separating a 10% sodium dodecyl sulfate (SDS)‐polyacrylamide gel, protein on the gel was then transferred onto nitrocellulose membranes (Merck, USA), which were blocked with 5% bovine serum albumin for 1 h to prevent non‐specific binding. Then, the anti‐caspase 3 antibody (catalog no. 9662, Cell Signaling Technology, USA), anti‐Bcl‐2 antibody (catalog no. GTX100064, GeneTex, USA), anti‐G3BP1 antibody (catalog no. 66486‐1‐Ig, Proteintech, China), anti‐β‐tubulin antibody (catalog no. 66240‐1‐Ig, Proteintech, China), and anti‐β‐actin antibody (catalog no. 66009‐1‐Ig, Proteintech, China) were used for treating the membrane overnight at 4 °C. Bound antibodies were detected with the species‐appropriate horseradish peroxidase‐labeled secondary antibody (Jackson ImmunoResearch, USA) using ECL reagents (ShareBio, China). Protein‐specific signals were detected using a Bio‐Rad Imager (Bio‐Rad, USA), and the bands were quantified by densitometric analysis software (ImageJ). β‐tubulin or β‐actin was used as a loading control.

[2] = molecular target: T1, G3BP1 (Mus musculus, UniProt P97855); assay: Cellular thermal shift assay; format: binding; settings: HT22 cell lysate
T1 construct: endogenous in cells; host or cells: HT22 cell lysate
Experimental: HT22 cells were grown to 90% confluency and harvested by trypsin and resuspended in 1 mL PBS. The samples were subjected to three freeze–thaw cycles in liquid nitrogen. Each cell lysate was centrifuged (12000 g for 30 min at 4 °C), and the supernatant was collected. The supernatants were treated with PB3 (or PBS control) for 20 min. Subsequently, they were aliquoted into Eppendorf tubes and heated for 3 min to 44, 48, 52, 56, or 60 °C. The soluble fractions were analyzed by SDS‐polyacrylamide gel electrophoresis and immunoblotted with anti‐G3BP1 antibody.

[3] = system: eIF2α phosphatases (GADD34 and PPP1R15B/CReP) and eIF2α kinases (PERK and GCN2); assay: RT-qPCR of key factors regulating SG dynamics; format: cell-based; settings: 50 µM, 6 h of reperfusion following OGD, HT22 cells
Experimental: Total RNA from HT22 cells was extracted with Trizol. The concentration and purity of RNA were determined by Nanodrop (Thermo Scientific, USA), and RNA was reverse transcribed by PrimeScript Reverse Transcription Master Mix (TaKaRa, Japan). Then RT‐qPCR was performed using Hieff qPCR SYBR Green Master Mix (Yeasen, China). The expression level of the transcripts was normalized to the constitutive expression level of β‐actin. The primers used for amplification are listed in Table S4 (Supporting Information).

[4] = system: HT22 cells under OGD/R injury; assay: Apoptosis level of HT22 cells under OGD/R (TUNEL staining and immunoblotting); format: cell-based
Experimental: HT22 cells were washed with phosphate buffered saline (PBS), then DMEM sugar‐free medium (Gibco, USA) was added and placed in the anaerobic incubator of 5% CO2, 1% O2, and 37 °C for 6 h. PB3 or other compounds were previously dissolved in DMEM/F‐12 with 10% FBS and 1% penicillin/streptomycin. After undergoing OGD for 6 h, the medium was replaced by DMEM/F‐12 with 10% FBS and 1% penicillin/streptomycin containing PB3 or other compounds and kept in a humidified 5% CO2, 37 °C incubator for 24 h.
Apoptosis level was evaluated by TUNEL staining and flow cytometry. For TUNEL staining, HT22 cells were treated with 4% paraformaldehyde for 15 min. Then the fixed brain tissue slices and HT22 cells were permeabilized for 5 min using 1% Triton X‐100 (Sigma‐Aldrich, USA) dissolved in PBS. TUNEL staining was executed by following the instructions, using a one‐step TUNEL apoptosis assay kit (Meilunbio, China). Red fluorescence was utilized to identify apoptotic cells, while 4′, 6‐diamidino‐2‐phenylindole (DAPI) was used to counterstain the nuclei. The fluorescence microscope (Carl Zeiss, Germany) was used to obtain images. For flow cytometry, apoptotic cells were determined with the Annexin V‐Alexa Fluor 488/PI apoptosis detection kit (Yeasen, China) by following the instructions. EDTA‐free trypsin (Gibco, USA) was added to HT22 cells (2.5 × 10^5 cells). The cells were collected and washed with pre‐cooling PBS 2 times, then suspended in 250 µL 1× binding buffer. 100 µL cell suspension was dyed with 5 µL Annexin V‐Alexa Fluor 488 and 10 µL PI and plunged into darkness at room temperature for 15 min. Then the cell suspension was mixed with 400 µL of 1× binding buffer. Cell apoptosis was immediately determined by Cytek Aurora (Cytek Biosciences, USA).
as §1

[5] = system: Primary rat cortical neurons; assay: Cytotoxicity (50% cytotoxic concentration) by CCK-8 assay; format: cell-based; settings: 24 h exposure
Experimental: Additionally, we investigated the effects of PB3, 6c, and EDA on apoptosis at a concentration of 50 µM. […] Therefore, the improvement in target accessibility could be one of the main reasons for the enhanced activity of 6c. The binding mode of 6c and the NTF2L domain of G3BP1 was analyzed by molecular docking (Figure S10B, Supporting Information). […] Cytotoxicities of 1 and 6c were determined by the detection of 50% cytotoxic concentration using the CCK‐8 assay. Primary rat cortical neurons ^[ [10] ^] were exposed to 200 µM gradient concentrations of compounds for 24 h.

[6] = system: bEnd.3 cells; assay: In vitro BBB model, Transwell transport apical-to-basolateral; format: in vitro ADME; settings: 100 µM, apical-to-basolateral, 30, 60, and 120 min
Experimental: The Transwell filters (0.4 µm pore) were used to evaluate the crossing capacity of the BBB of selected compounds. The basolateral side of the wells was filled by DMEM (Gibco, USA) with 10% FBS. Then, bEnd.3 cells were seeded on the apical side of the semi‐permeable filter in a humidified atmosphere. The culture medium was changed on alternate days. To verify if the cell monolayer formed junctions, the resistance was daily monitored by determining the trans‐endothelial electrical resistance. The resistance value of an empty filter was subtracted from each measurement. After reaching the confluence, bEnd.3 monolayer cells were washed three times with PBS, and the basolateral compartment was filled with Hanks' Balanced Salt Solution (HBSS). The permeability experiments across the cell monolayer were performed in the apical‐to‐basolateral direction. Transport experiments were assessed by placing the compounds, prepared in HBSS, on the upper side of the monolayers (100 µM/300 µL). At different time points (30, 60, and 120 min), 500 µL samples were taken from the basolateral side, and to replace the withdrawn volume, the same volume of preheated HBSS was added. The amount of cellular drug uptake was measured using a Waters e2695 system (Waters, USA).

[7] = 50 and 100 µM, compared with the model group
[8] = 50 µM, compared with the model group

T1 sequence (P97855 whole entry): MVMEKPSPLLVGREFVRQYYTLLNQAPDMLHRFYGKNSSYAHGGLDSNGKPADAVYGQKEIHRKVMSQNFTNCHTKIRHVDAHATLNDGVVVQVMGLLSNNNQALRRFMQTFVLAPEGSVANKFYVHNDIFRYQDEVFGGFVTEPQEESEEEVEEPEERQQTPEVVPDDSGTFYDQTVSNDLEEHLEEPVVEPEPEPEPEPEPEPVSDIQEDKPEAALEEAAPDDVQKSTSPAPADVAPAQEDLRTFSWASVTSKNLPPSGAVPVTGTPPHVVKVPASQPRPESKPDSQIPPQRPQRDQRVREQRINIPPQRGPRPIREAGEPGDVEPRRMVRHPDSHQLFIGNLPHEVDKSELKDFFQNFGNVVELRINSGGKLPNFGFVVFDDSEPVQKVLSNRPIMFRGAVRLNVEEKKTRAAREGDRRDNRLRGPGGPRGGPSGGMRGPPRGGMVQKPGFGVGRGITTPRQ

Row | Structure (SMILES) | protein level of G3BP1 [1] | thermal stability of G3BP1 [2] | expression of eIF2α phosphatases (GADD34 and PPP1R15B/CReP) [3] | expression of two eIF2α kinases (PERK and GCN2) [3] | expression of Bcl‐2 [4, 7] | expression of cleaved caspase‐3 [4, 7] | rate of TUNEL‐positive cells ([4]; HT22, OGD/R, different concentrations) | 50% cytotoxic concentration [5] | transport efficiency [6] | expression of Bcl‐2 [4, 8] | expression of cleaved caspase‐3 [4, 8] | rate of TUNEL‐positive cells [4, 8]
1 | Oc1cc(O)c2c(c1)O[C@H](c1ccc(O)c(O)c1)[C@@H](O)[C@@H]2c1c(O)cc(O)c2c1O[C@H](c1ccc(O)c(O)c1)[C@@H](O)C2 [Compound 1, procyanidin B3] | did not perturb the protein level of G3BP1 | enhanced the thermal stability of G3BP1 | significantly lower | significantly higher | significantly increased | significantly decreased | dose‐dependently reduced | over 200 µM |  |  |  | 
2 | CC(C)c1c(O)cc(O)c2c1O[C@H](c1ccc(O)c(O)c1)[C@@H](O)[C@@H]2c1c(O)cc(O)c2c1O[C@H](c1ccc(O)c(O)c1)[C@@H](O)C2 [Compound 6c, 8‐Isopropyl‐(+)‐Catechin‐(4α,8)‐(+)‐Catechin] |  |  |  |  |  |  |  | over 200 µM | better than that of 1 | increase the expression of Bcl‐2 | decrease the expression of cleaved caspase‐3 | reduce the rate of TUNEL‐positive cells

Source: publication PMC12677652, “Procyanidin B3 and Its Derivatives Alleviate Neuronal Injury by Targeting G3BP1 for Ischemic Stroke Therapy” (Advanced Science, 2025)
